Each compound was assayed against T1, Siglec-2 (CD22) (Homo sapiens, UniProt P20273) (assay: new affinity assay: displacement of biotinylated compound 155 from sialidase-treated Daudi cells, FACS with streptavidin-PE). Settings: Table II; rIP values set relative to compound 38; Daudi cells, displacement of compound 155.
T1 sequence (P20273 20-847): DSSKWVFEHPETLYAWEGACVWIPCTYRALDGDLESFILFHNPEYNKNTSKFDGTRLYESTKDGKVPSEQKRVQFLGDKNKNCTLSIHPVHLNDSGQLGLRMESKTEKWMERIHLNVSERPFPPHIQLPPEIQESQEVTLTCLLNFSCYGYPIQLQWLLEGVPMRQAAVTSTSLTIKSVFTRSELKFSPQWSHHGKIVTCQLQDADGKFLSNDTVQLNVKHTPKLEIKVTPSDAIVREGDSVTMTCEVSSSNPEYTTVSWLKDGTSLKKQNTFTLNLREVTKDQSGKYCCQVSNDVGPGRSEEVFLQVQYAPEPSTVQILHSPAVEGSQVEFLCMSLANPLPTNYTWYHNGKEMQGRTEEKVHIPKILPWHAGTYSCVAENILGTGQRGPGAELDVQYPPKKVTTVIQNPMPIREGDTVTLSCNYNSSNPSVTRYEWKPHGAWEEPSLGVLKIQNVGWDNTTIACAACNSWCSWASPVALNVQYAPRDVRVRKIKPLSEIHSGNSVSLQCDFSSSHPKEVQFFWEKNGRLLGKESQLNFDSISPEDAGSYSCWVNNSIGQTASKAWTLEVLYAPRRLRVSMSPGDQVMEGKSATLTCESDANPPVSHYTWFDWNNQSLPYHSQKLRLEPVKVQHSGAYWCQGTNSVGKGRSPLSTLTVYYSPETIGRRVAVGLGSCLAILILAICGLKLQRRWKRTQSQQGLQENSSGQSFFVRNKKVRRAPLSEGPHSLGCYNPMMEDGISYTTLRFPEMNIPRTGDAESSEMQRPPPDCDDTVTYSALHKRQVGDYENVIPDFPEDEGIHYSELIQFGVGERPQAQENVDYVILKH
Type: binding
Parameters: endogenous in cells; host or cells: Daudi (human B-cell lymphoma line)
Experimental: To determine the affinity of the compound of the formula (I), approximately 5×10^6 to 2×10^8 cells of the human B-cell lymphoma line “Daudi” were incubated with sialidase (A. ureafaciens) at 37° C. for 1 h (final concentration 0.1 unit/ml). […] Batches of 1-2×10^6 cells were transferred to sample vessels, and incubated on ice for 15 min with serial concentrations (10-fold dilutions, 1 mM to 1×10^−7 mM) of the substance under measurement (inhibitor). The reaction volume was 50 μl. Then 50 microliters of compound 155 (4-micromolar) were added, and incubation took place for 20 min Washing with FACS buffer (PBS, 0.1 BSA, 0.01% sodium azide) was followed by incubation with streptavidin-PE in the dark for 15 min, followed by washing and measurement of the bound amount of […] via the streptavidin-PE in the FACS. For the determination of 0% displacement of the compound 155, cells without inhibitor were measured. For the determination of 100% displacement, cells were measured without compound 155 and without inhibitor. For each assay, four substances and one reference were measured. The IC50 values determined in each assay were subsequently converted into values of rIP (relative Inhibitory Potency). […]

| SMILES | rIP |
| --- | --- |
| CC(=O)N[C@H]1[C@H]([C@H](O)[C@H](O)CNC(=O)c2ccc(-c3ccsc3)cc2)O[C@@](OCCCSCCNC(=O)c2ccc(C(=O)NCCSCCCO[C@]3(C(=O)[O-])C[C@H](O)[C@@H](NC(C)=O)[C@H]([C@H](O)[C@H](O)CNC(=O)c4ccc(-c5ccsc5)cc4)O3)cc2)(C(=O)[O-])C[C@@H]1O.[Na+].[Na+] [Compound 81] | 2068 |
| CC(=O)N[C@H]1[C@H]([C@H](O)[C@H](O)CNC(=O)c2ccc(-c3ccccc3)cc2)O[C@@](OCCCSCCNC(=O)CSSCC(=O)NCCSCCCO[C@]2(C(=O)[O-])C[C@H](O)[C@@H](NC(C)=O)[C@H]([C@H](O)[C@H](O)CNC(=O)c3ccc(-c4ccccc4)cc3)O2)(C(=O)[O-])C[C@@H]1O.[Na+].[Na+] [Compound 13] | 251 |
| CC(=O)N[C@H]1[C@H]([C@H](O)[C@H](O)CNC(=O)c2ccc(-c3ccccc3)cc2)O[C@@](OCCCSCCNC(=O)c2ccccc2-c2ccccc2C(=O)NCCSCCCO[C@]2(C(=O)[O-])C[C@H](O)[C@@H](NC(C)=O)[C@H]([C@H](O)[C@H](O)CNC(=O)c3ccc(-c4ccccc4)cc3)O2)(C(=O)[O-])C[C@@H]1O.[Na+].[Na+] [Compound 35] | 717 |
| CC(=O)N[C@H]1[C@H]([C@H](O)[C@H](O)CNC(=O)c2ccc(-c3ccccc3)cc2)O[C@@](OCCCSCCNC(=O)c2ccc(C(=O)NCCSCCCO[C@]3(C(=O)[O-])C[C@H](O)[C@@H](NC(C)=O)[C@H]([C@H](O)[C@H](O)CNC(=O)c4ccc(C5CCCCC5)cc4)O3)cc2)(C(=O)[O-])C[C@@H]1O.[Na+].[Na+] [Compound 103] | 185 |
| CC(=O)N[C@H]1[C@H]([C@H](O)[C@H](O)CNC(=O)c2ccc(Cl)cc2)O[C@@](OCCCSCCNC(=O)c2ccc(C(=O)NCCSCCCO[C@]3(C(=O)[O-])C[C@H](O)[C@@H](NC(C)=O)[C@H]([C@H](O)[C@H](O)CNC(=O)c4ccc(Cl)cc4)O3)cc2)(C(=O)[O-])C[C@@H]1O.[Na+].[Na+] [Compound 72] | 38 |
| COc1ccccc1-c1ccc(C(=O)NC[C@@H](O)[C@@H](O)[C@@H]2O[C@@](OCCCSCCNC(=O)c3ccc(C(=O)NCCSCCCO[C@]4(C(=O)[O-])C[C@H](O)[C@@H](NC(C)=O)[C@H]([C@H](O)[C@H](O)CNC(=O)c5ccc(-c6ccccc6OC)cc5)O4)cc3)(C(=O)[O-])C[C@H](O)[C@H]2NC(C)=O)cc1.[Na+].[Na+] [Compound 74] | 27 |
| CC(=O)N[C@H]1[C@H]([C@H](O)[C@H](O)CNC(=O)c2ccc(-c3ccccc3)cc2)O[C@@](OCCCSCCC(=O)Nc2ccccc2NC(=O)CCSCCCO[C@]2(C(=O)[O-])C[C@H](O)[C@@H](NC(C)=O)[C@H]([C@H](O)[C@H](O)CNC(=O)c3ccc(-c4ccccc4)cc3)O2)(C(=O)[O-])C[C@@H]1O.[Na+].[Na+] [Compound 42] | 359 |
| CC(=O)N[C@H]1[C@H]([C@H](O)[C@H](O)CNC(=O)c2ccc(-c3ccccc3)cc2)O[C@@](OCCCSCCNC(=O)CC(=O)NCCSCCCO[C@]2(C(=O)[O-])C[C@H](O)[C@@H](NC(C)=O)[C@H]([C@H](O)[C@H](O)CNC(=O)c3ccc(-c4ccccc4)cc3)O2)(C(=O)[O-])C[C@@H]1O.[Na+].[Na+] [Compound 37] | 177 |
| CC(=O)N[C@H]1[C@H]([C@H](O)[C@H](O)CNC(=O)c2ccc(-c3ccc([N+](=O)[O-])cc3[N+](=O)[O-])c([N+](=O)[O-])c2)O[C@@](OCCCSCCNC(=O)c2ccc(C(=O)NCCSCCCO[C@]3(C(=O)[O-])C[C@H](O)[C@@H](NC(C)=O)[C@H]([C@H](O)[C@H](O)CNC(=O)c4ccc(-c5ccc([N+](=O)[O-])cc5[N+](=O)[O-])c([N+](=O)[O-])c4)O3)cc2)(C(=O)[O-])C[C@@H]1O.[Na+].[Na+] [Compound 69] | 14 |
| CC(=O)N[C@H]1[C@H]([C@H](O)[C@H](O)CNC(=O)c2ccc(-c3ccc(C(=O)[O-])cc3)cc2)O[C@@](OCCCSCCNC(=O)c2ccc(C(=O)NCCSCCCO[C@]3(C(=O)[O-])C[C@H](O)[C@@H](NC(C)=O)[C@H]([C@H](O)[C@H](O)CNC(=O)c4ccc(-c5ccc(C(=O)[O-])cc5)cc4)O3)cc2)(C(=O)[O-])C[C@@H]1O.[Na+].[Na+].[Na+].[Na+] [Compound 68] | 5 |
| CC(=O)N[C@H]1[C@H]([C@H](O)[C@H](O)CNC(=O)c2ccc(-c3cccs3)cc2)O[C@@](OCCCSCCNC(=O)c2ccc(C(=O)NCCSCCCO[C@]3(C(=O)[O-])C[C@H](O)[C@@H](NC(C)=O)[C@H]([C@H](O)[C@H](O)CNC(=O)c4ccc(-c5cccs5)cc4)O3)cc2)(C(=O)[O-])C[C@@H]1O.[Na+].[Na+] [Compound 80] | 14342 |
| CC(=O)N[C@H]1[C@H]([C@H](O)[C@H](O)CNC(=O)c2ccc(-c3ccccc3)cc2)O[C@@](OCCCSCCNC(=O)c2ccc(-c3ccc(C(=O)NCCSCCCO[C@]4(C(=O)[O-])C[C@H](O)[C@@H](NC(C)=O)[C@H]([C@H](O)[C@H](O)CNC(=O)c5ccc(-c6ccccc6)cc5)O4)cc3)cc2)(C(=O)[O-])C[C@@H]1O.[Na+].[Na+] [Compound 24] | 75 |
| CC(=O)N[C@H]1[C@H]([C@H](O)[C@H](O)CNC(=O)c2ccc(-c3ccccc3)cc2)O[C@@](OCCCCCCNC(=O)c2ccc(C(=O)NCCSCCCO[C@]3(C(=O)O)C[C@H](O)[C@@H](NC(C)=O)[C@H]([C@H](O)[C@H](O)CNC(=O)c4ccc(-c5ccccc5)cc4)O3)cc2)(C(=O)O)C[C@@H]1O [Compound 92] | 3788 |
| CC(=O)N[C@H]1[C@H]([C@H](O)[C@H](O)CNC(=O)c2cc3ccccc3s2)O[C@@](OCCCSCCNC(=O)c2ccc(C(=O)NCCSCCCO[C@]3(C(=O)[O-])C[C@H](O)[C@@H](NC(C)=O)[C@H]([C@H](O)[C@H](O)CNC(=O)c4cc5ccccc5s4)O3)cc2)(C(=O)[O-])C[C@@H]1O.[Na+].[Na+] [Compound 70] | 137 |
| CC(=O)N[C@H]1[C@H]([C@H](O)[C@H](O)CNC(=O)c2ccc(C3CCCCC3)cc2)O[C@@](OCCCSCCNC(=O)CCCCC(=O)NCCSCCCO[C@]2(C(=O)[O-])C[C@H](O)[C@@H](NC(C)=O)[C@H]([C@H](O)[C@H](O)CNC(=O)c3ccc(C4CCCCC4)cc3)O2)(C(=O)[O-])C[C@@H]1O.[Na+].[Na+] [Compound 58] | 24 |
| CC(=O)N[C@H]1[C@H]([C@H](O)[C@H](O)CNCc2ccc(-c3ccccc3)cc2)O[C@@](OCCCSCCNC(=O)c2ccc(C(=O)NCCSCCCO[C@]3(C(=O)[O-])C[C@H](O)[C@@H](NC(C)=O)[C@H]([C@H](O)[C@H](O)CNCc4ccc(-c5ccccc5)cc4)O3)cc2)(C(=O)[O-])C[C@@H]1O.[Na+].[Na+] [Compound 85] | 1 |
| CC(=O)N[C@H]1[C@H]([C@H](O)[C@H](O)CNc2c(NCc3ccccc3)c(=O)c2=O)O[C@@](OCCCSCCNC(=O)c2ccc(C(=O)NCCSCCCO[C@]3(C(=O)[O-])C[C@H](O)[C@@H](NC(C)=O)[C@H]([C@H](O)[C@H](O)CNc4c(NCc5ccccc5)c(=O)c4=O)O3)cc2)(C(=O)[O-])C[C@@H]1O.[Na+].[Na+] [Compound 134] | 70 |
| CC(=O)N[C@H]1[C@H]([C@H](O)[C@H](O)CNS(=O)(=O)c2ccc(-c3ccccc3)cc2)O[C@@](OCCCSCCNC(=O)c2ccc(C(=O)NCCSCCCO[C@]3(C(=O)[O-])C[C@H](O)[C@@H](NC(C)=O)[C@H]([C@H](O)[C@H](O)CNS(=O)(=O)c4ccc(-c5ccccc5)cc4)O3)cc2)(C(=O)[O-])C[C@@H]1O.[Na+].[Na+] [Compound 84] | 9 |
